Where “and” joins values, the source holds several entries; their conditions need not be identical. Equal entries are not always repeated.
Key:
[1] = Fly locomotor activity assay (DAM2 beam breaks); type: in vivo, Drosophila
Description: (§1) Fig. 9 In vivo effects of compound 3b. Flies with motoneuron overexpression of the human aβ42arc (arctic mutation) (D42Gal4 > aβ42arc) or mock expression (D42Gal4 > LacZ) were fed with 3b (100 μM) or same volume of vehicle DMSO. a Twenty-day old adult abdominal motoneurons were analyzed and synapse number (nc82-positive spots) of the same motoneuron in different flies (16–19) were determined using Imaris, over the confocal 1 µm stacks. Data are plotted in graphs, where each grey triangle (aβ42arc flies fed with vehicle) and green triangle (aβ42arc flies fed with 3b) or each grey circle (control flies fed with vehicle) and green circle (control flies fed with 3b) represents one value. Horizontal line represents mean ± SEM. Data are analyzed statistically with unpaired two-tailored Student’s t test; ***P < 0.001. b Locomotor activity of individual 15 days old flies was recorded for 4 days in Drosophila Activity Monitors (DAM2, Trikinetics)[36], the total number of beam breaks per hour during two consecutive days was analyzed (the activity of the first two days is considered the habituation period and is discarded). Mean ± SEM of three independent experiments with 5–12 flies per condition each, were plotted and analyzed statistically with paired two-tailed Student’s t-test, *P < 0.05. Source data are provided as a Source Data file, ns non significant
(§2) To measure the physiological impact of this synaptic recovery, we evaluated fly locomotor activity. As described previously, overexpression of human aβ42arc peptide leads to severe locomotor dysfunction starting at day 15–20 post-eclosion[35].
(§3) Fifteen-day-old males were placed individually in locomotor activity monitor tubes (DAM2, TriKinetics Inc.) The DAM2 system automatically counts the number of beam breaks for flies walking in a horizontal tube over a specific period of time. This setup allowed for characterization of the locomotor and behavior rhythms of Drosophila. The tubes contained fly food with 100 µM compound 3b or same volume of DMSO. Flies were raised at 25 °C in 12-h light/12-h dark. In the first 2 days flies get habituated and the next 2 days the locomotor activity was quantified.

[2] = system: Drosophila model of Alzheimer's disease (motoneuron overexpression of human aβ42arc); assay: Fly locomotor activity assay (DAM2 beam breaks); type: in vivo
Description: as §1, §2, §3

dNCS-1 = target: T1, dNCS-1 (Drosophila melanogaster, UniProt Q9VWX8); assay: STD-NMR experiments with dNCS-1; type: binding; conditions: compound 1 mM, 10 μM dNCS-1, 281 K
T1 construct: made in house; host or cells: E. coli
T1 sequence (Q9VWX8 1-187): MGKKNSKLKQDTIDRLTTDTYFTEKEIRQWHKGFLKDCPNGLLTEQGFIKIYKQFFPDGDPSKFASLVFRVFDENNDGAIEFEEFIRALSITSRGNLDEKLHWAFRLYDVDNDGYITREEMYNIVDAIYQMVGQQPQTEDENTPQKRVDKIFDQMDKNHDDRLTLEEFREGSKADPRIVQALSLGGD
Description: Fig. 5 ^1H-STD-NMR spectra of 3a–3e in the presence of dNCS-1. STD (blue) and off-resonance (red) NMR spectra acquired for compounds 3a–3e (1 mM) in the presence of 10 μM dNCS-1 (600 MHz, 281 K). Relative STD intensities are coded according to the color scale shown. The 100% STD signal corresponds to the resonance showing the highest intensity in each case and all other STD signals are calculated accordingly
The experiments were performed using a deuterated Tris (pH 7.9) buffered solution with an aliquot of DMSO-d6. A sample containing 10 μM of dNCS-1 and 1 mM of DCL species (molar ratio 1:100) was prepared. The STD experiments were acquired at 281 K on a Bruker Avance 600 MHz spectrometer equipped with a cryoprobe. […]. The same conditions were used for the acquisition of the STD-NMR spectra of the individual products with dNCS-1.

[3] = system: Cortical neurons from E14 wild-type mice; assay: Toxicity in primary cultured neurons (percentage of picnotic bodies); type: cell-based; conditions: 24 h
Source text: Mean ± SD from three independent experiments. The curves represent the least squares fitting of the experimental data to a 1:1 stoichiometry. To properly compare the different curves, intensities were normalized and represented. […] Input represents 1/10 cell lysates before IP. Quantifications of each lane from four experiments are shown below the blots. Bars represent percentage of NCS-1/ Ric8a binding (mean ± SD) normalized to DMSO. […] CNS + (green) for Pe > 4.47 × 10^−6 cm s^−1, CNS- (red) for compounds with Pe < 4.47 × 10^–6 cm s^−1. […] Mean ± SD from three independent experiments. […] Then, the percentage of picnotic bodies over the total nuclei was analyzed. Mean ± SD from three independent experiments. Paired two-tailed Student’s test ***P˂0.001; **P < 0.01; *P < 0.05. Source data are provided as a Source Data file. IP immunoprecipitation, WB western blot
Finally, cell toxicity in neurons was quantified as percentage of picnotic bodies for 3b (Fig. 6d).
Cortical neurons were obtained from E14 wt mice (C57BL6J). Mice were maintained in accordance to European law and following Hospital Ramón y Cajal´s animal guidelines. […] Three independent experiments counting cells from three different wells per concentration were performed. To analyzed cell death, neurons were fixed and stained with DAPI.

[4] = system: Drosophila model of Alzheimer's disease (motoneuron overexpression of human aβ42arc); assay: Synapse number quantification at the neuromuscular junction of flies fed with compound; type: in vivo; conditions: vs DMSO
Description: Aβ42arc overexpressing flies and the corresponding control (LacZ expression) were fed with 3b or the solvent, DMSO, throughout all life cycle (Fig. 9 and see Methods section).
as §1, with “Data are plotted in graphs, where each grey triangle (aβ42arc flies fed with vehicle) and green triangle (aβ42arc flies fed with 3b) or each grey circle (control flies fed with vehicle) and green circle (control flies fed with 3b) represents one value. Horizontal line represents mean ± SEM.” left out, “Source data are provided as a Source Data file, ns non significant” left out
The Drosophila neuromuscular junction (NMJ) allows the accurate quantitative determination of the in vivo effects of drug application on a single glutamatergic synapse. […]

[5] = 100 μM in food, one value per fly

In the case of `O=C(Cc1c[nH]c2ccccc12)NN=Cc1ccc([N+](=O)[O-])c(O)c1` (mixture of isomers) [3b], the “beam breaks per hour of individual flies, control + 3b, Experiment 1” value [1, 5] is reported as 102 and 219 and 449 and 504 and 422 and 192 and 564, the “beam breaks per hour of individual flies, control + 3b, Experiment 2” value [1, 5] is reported as 281 and 38 and 295 and 200 and 178 and 147 and the “beam breaks per hour of individual flies, control + 3b, Experiment 3” value [1, 5] is reported as 81 and 263 and 78 and 204 and 169. For the same compound, the “locomotor activity of control flies” value ([1]; fed 100 μM, vs DMSO) was “does not reveal a significant difference”, the “beam breaks per hour of individual flies, aβ42arc + 3b, Experiment 1” value [2, 5] was 327 and 264 and 198 and 235 and 195 and 320 and 256 and 104 and 272 and 274 and 106 and 220 and the “beam breaks per hour of individual flies, aβ42arc + 3b, Experiment 2” value [2, 5] was 295 and 321 and 87 and 159 and 125 and 199 and 157 and 279 and 287 and 274. For the same compound, the “beam breaks per hour of individual flies, aβ42arc + 3b, Experiment 3” value [2, 5] was 140 and 89 and 136 and 171 and 263 and 178 and 216 and 151 and 91 and 146 and 160, the “locomotor activity of aβ42arc flies” value ([2]; fed 100 μM, 15 days old flies, vs DMSO) was “locomotor deficit was recovered” and the “recognition by dNCS-1 in STD-NMR” value (dNCS-1) was “largest STD intensities”. The “percentage of picnotic bodies, % exp 2” value ([3]; 0.2 μM) was 12%, the “percentage of picnotic bodies, % exp 3” value ([3]; 0.2 μM) was 10% and the “percentage of picnotic bodies, % exp.1” value ([3]; 0.2 μM) was 10.1%. The “percentage of picnotic bodies over total nuclei, average” value (shortened to “percentage of picnotic bodies … average”) ([3]; 0.2 μM, DMSO 8.4) was 10.7%, the “percentage of picnotic bodies, % exp 2” value ([3]; 2 μM) was 10% and the “percentage of picnotic bodies, % exp 3” value ([3]; 2 μM) was 10%. For the same compound, the “percentage of picnotic bodies, % exp.1” value ([3]; 2 μM) was 13.4%, the “percentage of picnotic bodies … average” value ([3]; 2 μM, DMSO 8.06667) was 11.1333% and the “percentage of picnotic bodies, % exp 2” value ([3]; 10 μM) was 12.5%. For the same compound, the “percentage of picnotic bodies, % exp 3” value ([3]; 10 μM) was 15%, the “percentage of picnotic bodies, % exp.1” value ([3]; 10 μM) was 14.3% and the “percentage of picnotic bodies … average” value ([3]; 10 μM, DMSO 12.1667) was 13.9333%. The “percentage of picnotic bodies, % exp 2” value ([3]; 20 μM) was 17.5%, the “percentage of picnotic bodies, % exp 3” value ([3]; 20 μM) was 22.6% and the “percentage of picnotic bodies, % exp.1” value ([3]; 20 μM) was 15.3%. The “percentage of picnotic bodies … average” value ([3]; 20 μM, DMSO 12) was 18.4667%, the “cell toxicity in neurons compared with vehicle DMSO” value ([3]; 0.2, 2, 10, 20 μM) was “no significant differences” and the “synapse number in aβ42arc flies” value ([4]; fed 100 μM throughout life cycle, 20-day old adults) was “pathological phenotype was largely suppressed”. For the same compound, the “synapse number in control (LacZ) flies” value ([4]; fed 100 μM) was “no effect”.
